Experimental findings from ChEMBL document CHEMBL5131442, “Design and synthesis of Osthole-based compounds as potential Nrf2 agonists” (Bioorg Med Chem Lett, 2022) are described below.

Structures are written as SMILES. Calls of active or inactive are those of the source. The calls are words filed in the database; no cut-off is given here.

Sequence of Keap1/Nrf2 (Homo sapiens) (Q14145 whole entry, looked up, one chain of several): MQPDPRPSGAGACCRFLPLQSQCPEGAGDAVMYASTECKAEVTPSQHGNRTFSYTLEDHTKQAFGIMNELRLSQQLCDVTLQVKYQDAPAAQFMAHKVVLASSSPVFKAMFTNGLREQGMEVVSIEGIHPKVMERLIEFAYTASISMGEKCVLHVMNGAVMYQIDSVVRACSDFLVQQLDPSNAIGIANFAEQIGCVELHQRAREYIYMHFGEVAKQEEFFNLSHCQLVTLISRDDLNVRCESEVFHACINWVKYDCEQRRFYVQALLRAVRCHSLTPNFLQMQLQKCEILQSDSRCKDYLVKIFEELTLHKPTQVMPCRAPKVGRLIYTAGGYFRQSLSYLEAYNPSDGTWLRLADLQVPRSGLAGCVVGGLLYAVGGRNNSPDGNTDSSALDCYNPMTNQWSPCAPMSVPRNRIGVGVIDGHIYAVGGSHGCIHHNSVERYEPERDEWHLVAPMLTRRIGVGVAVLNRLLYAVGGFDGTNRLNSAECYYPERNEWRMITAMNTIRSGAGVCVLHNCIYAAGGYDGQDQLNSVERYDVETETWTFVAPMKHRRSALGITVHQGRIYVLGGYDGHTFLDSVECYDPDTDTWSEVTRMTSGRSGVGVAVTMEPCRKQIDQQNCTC

The target in the first experiment is T1, Nuclear factor erythroid 2-related factor 2 (Homo sapiens) (UniProt Q16236).
T1 sequence (whole entry): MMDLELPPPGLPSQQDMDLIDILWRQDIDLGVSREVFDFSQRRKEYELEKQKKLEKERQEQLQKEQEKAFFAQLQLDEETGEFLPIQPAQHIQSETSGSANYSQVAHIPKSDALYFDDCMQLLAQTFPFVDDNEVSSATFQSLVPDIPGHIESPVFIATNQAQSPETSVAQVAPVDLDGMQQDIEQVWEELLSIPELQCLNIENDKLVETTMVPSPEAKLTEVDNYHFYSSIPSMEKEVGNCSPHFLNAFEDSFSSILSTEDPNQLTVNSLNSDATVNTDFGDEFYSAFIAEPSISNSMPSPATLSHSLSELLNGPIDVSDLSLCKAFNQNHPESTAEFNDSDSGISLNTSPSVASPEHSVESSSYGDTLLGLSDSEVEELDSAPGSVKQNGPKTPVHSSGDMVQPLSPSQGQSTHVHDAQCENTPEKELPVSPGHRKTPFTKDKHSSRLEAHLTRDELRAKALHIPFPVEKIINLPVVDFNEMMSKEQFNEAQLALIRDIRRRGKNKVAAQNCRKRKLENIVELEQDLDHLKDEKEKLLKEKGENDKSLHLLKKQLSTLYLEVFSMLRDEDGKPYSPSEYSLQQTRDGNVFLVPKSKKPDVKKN
The experiment can be described thus: Agonist activity at Nrf2 (unknown origin) at 10 uM by dual-luciferase reporter gene assay. To be noted: filed as agonist.
On to `CC(C)(C)c1cc(O)ccc1O`, for which the fold change (FC) was 1.7.

A further experiment has as its target T1, Nuclear factor erythroid 2-related factor 2 (Homo sapiens). The experiment can be described thus: Agonist activity at Nrf2 (unknown origin) at 20 uM by dual-luciferase reporter gene assay. To be noted: filed as agonist.
Take `COc1ccc2ccc(=O)oc2c1CC=C(C)C`: the fold change (FC) came out at 1.18.
The same measure, in the same setting: then `CC1(C)CCc2c(c(Br)cc3cc(-c4ccc(OC(F)(F)F)cc4)c(=O)oc23)O1`, with 1.69; and `Cc1ccc(-c2cc3cc(Br)c4c(c3oc2=O)CCC(C)(C)O4)cc1`, with 1.61.
Same read-out and setting: then `COc1ccc2c(CC(C)NC(=O)Oc3ccc4ccc(=O)oc4c3CC=C(C)C)c[nH]c2c1` (centres undefined), with 0.73.
The same measure, in the same setting: then `COc1ccc2[nH]c(C)c(CC(=O)Oc3ccc4ccc(=O)oc4c3CC=C(C)C)c2c1`, with 1.56; and `CC1(C)CCc2c(c(Br)cc3cc(-c4cccc(C(F)(F)F)c4)c(=O)oc23)O1`, with 1.52; and `COc1ccc2c(CC(=O)Oc3ccc4ccc(=O)oc4c3CC=C(C)C)c[nH]c2c1`, with 1.51.
Regarding `CC(C)=CCc1c(OC(=O)Cc2c(C)[nH]c3ccccc23)ccc2ccc(=O)oc12`, the fold change (FC) came out at 1.51.
On the same count and under the same terms, then `CC1(C)CCc2c(c(Br)cc3cc(-c4ccc(C(F)(F)F)cc4)c(=O)oc23)O1`, with 2.04; and `CC(C)=CCc1c(OC(=O)NCCc2c[nH]c3ccc(Cl)cc23)ccc2ccc(=O)oc12`, with 0.79; and `CC(C)=CCc1c(OC(=O)Cc2c[nH]c3ccc(Br)cc23)ccc2ccc(=O)oc12`, with 1.41.
On the same count and under the same terms, then `CC1(C)CCc2c(c(Br)cc3cc(-c4ccc(F)cc4)c(=O)oc23)O1`, with 1.26.
In the case of `CC(C)=CCc1c(OC(=O)NCCc2c[nH]c3ccccc23)ccc2ccc(=O)oc12`, the fold change (FC) stood at 0.95.
The same measure, in the same setting: then `COc1ccccc1-c1cc2cc(Br)c3c(c2oc1=O)CCC(C)(C)O3`, with 1.58; and `COc1ccc2[nH]cc(CC(=O)Oc3ccc4ccc(=O)oc4c3CC=C(C)C)c2c1`, with 1.59; and `COc1ccc2[nH]cc(CCNC(=O)Oc3ccc4ccc(=O)oc4c3CC=C(C)C)c2c1`, with 0.98.
Same read-out and setting: to `CC(C)=CCc1c(OC(=O)Cc2c[nH]c3ccc(C)cc23)ccc2ccc(=O)oc12` belongs 1.51; to `COc1ccc(-c2cc3cc(Br)c4c(c3oc2=O)CCC(C)(C)O4)cc1`, 1.53.
In the case of `CC(C)=CCc1c(OC(=O)Cc2c[nH]c3ccccc23)ccc2ccc(=O)oc12`, the fold change (FC) came out at 1.55.
In the case of `CC(C)=CCc1c(OC(=O)NCCc2c[nH]c3ccc(C)cc23)ccc2ccc(=O)oc12`, the fold change (FC) stood at 0.95.
For `CC1(C)CCc2c(c(Br)cc3cc(-c4ccccc4)c(=O)oc23)O1`, the fold change (FC) is 2.57.
On the same count and under the same terms, to `CC(C)=CCc1c(OC(=O)NCCc2c(C)[nH]c3ccccc23)ccc2ccc(=O)oc12` belongs 0.61; to `COc1cccc(-c2cc3cc(Br)c4c(c3oc2=O)CCC(C)(C)O4)c1`, 1.41.
Same read-out and setting: then `CC(C)=CCc1c(OC(=O)Cc2c[nH]c3cc(Cl)ccc23)ccc2ccc(=O)oc12`, with 1.65.

In the next experiment the target is T2, Nuclear factor erythroid 2-related factor 2 (Homo sapiens, UniProt Q16236).
T2 sequence (Q16236 whole entry): T1 sequence (whole entry)
Put plainly: Activation of Nrf2 in HEK293T cells. It counts as cell-based.
Settings: not given
In turn, `CC1(C)CCc2c(c(Br)cc3cc(-c4ccc(C(F)(F)F)cc4)c(=O)oc23)O1` yielded an EC50 of 4.55 µM.
Still for that read-out and setting: to `CC1(C)CCc2c(c(Br)cc3cc(-c4ccccc4)c(=O)oc23)O1` belongs 2.9 µM.

The target of a further experiment is Kelch-like ECH-associated protein 1 (Homo sapiens) (UniProt Q14145). The experiment can be described thus: Binding affinity to Keap1 in human A549 cells assessed as thermal stabilization by measuring change in melting temperature at 10 uM by cellular thermal shift assay. Format: cell-based.
Sequence of Kelch-like ECH-associated protein 1 (Homo sapiens) (Q14145 whole entry): as the sequence (Q14145 whole entry, looked up, one chain of several) above
Settings: not given
`CC1(C)CCc2c(c(Br)cc3cc(-c4ccccc4)c(=O)oc23)O1`: the outcome was Active.

The next experiment concerns the target Keap1/Nrf2 (Homo sapiens) (UniProt Q16236+Q14145). The experiment can be described thus: Inhibition of Keap1-Nrf2 protein-protein interaction in human A549 cells assessed as reduction in Nrf2 ubiquitination by immunoprecipitation analysis. Format: cell-based.
Settings: not given
As for `CC1(C)CCc2c(c(Br)cc3cc(-c4ccccc4)c(=O)oc23)O1`, the inhibition entry is “Active”.
